# Like-named read-outs stand apart in the source and are kept apart here.
# Legend:
# BLK = BLK (Homo sapiens, UniProt P51451); experiment: panel enzyme assay of 257 kinases; assay type: biochemical; settings: read-out: % Inhibition by Compound (1) at 1000 nmol/L
# Protocol: (§1) To investigate further kinase selectivity of Compound (1), a panel enzyme assay of 257 kinases for Compound (1) was conducted.
# BMX = BMX (Homo sapiens, UniProt P51813); experiment: panel enzyme assay of 257 kinases; assay type: biochemical; settings: read-out: % Inhibition by Compound (1) at 1000 nmol/L
# Protocol: as §1
# BTK = BTK (Homo sapiens, UniProt Q06187); experiment: panel enzyme assay of 257 kinases; assay type: biochemical; settings: read-out: % Inhibition by Compound (1) at 1000 nmol/L
# Protocol: as §1
# DDR1 = DDR1 (Homo sapiens, UniProt Q08345); experiment: panel enzyme assay of 257 kinases; assay type: biochemical; settings: read-out: % Inhibition by Compound (1) at 1000 nmol/L
# Protocol: as §1
# EGFR = EGFR (Homo sapiens, UniProt P00533); experiment: panel enzyme assay of 257 kinases; assay type: biochemical; settings: read-out: % Inhibition by Compound (1) at 1000 nmol/L
# Protocol: as §1
# EPHA6 = EPHA6 (Homo sapiens, UniProt Q9UF33); experiment: panel enzyme assay of 257 kinases; assay type: biochemical; settings: read-out: % Inhibition by Compound (1) at 1000 nmol/L
# Protocol: as §1
# FLT4 = FLT4 (Homo sapiens, UniProt P35916); experiment: panel enzyme assay of 257 kinases; assay type: biochemical; settings: read-out: % Inhibition by Compound (1) at 1000 nmol/L
# Protocol: as §1
# HER2 = HER2 (Homo sapiens, UniProt P04626); experiment: panel enzyme assay of 257 kinases; assay type: biochemical; settings: read-out: % Inhibition by Compound (1) at 1000 nmol/L
# Protocol: as §1
# HER4 = HER4 (Homo sapiens, UniProt Q15303); experiment: panel enzyme assay of 257 kinases; assay type: biochemical; settings: read-out: % Inhibition by Compound (1) at 1000 nmol/L
# Protocol: as §1
# ITK = ITK (Homo sapiens, UniProt Q08881); experiment: panel enzyme assay of 257 kinases; assay type: biochemical; settings: read-out: % Inhibition by Compound (1) at 1000 nmol/L
# Protocol: as §1
# JAK3 = JAK3 (Homo sapiens, UniProt P52333); experiment: panel enzyme assay of 257 kinases; assay type: biochemical; settings: read-out: % Inhibition by Compound (1) at 1000 nmol/L
# Protocol: as §1
# KDR = KDR (Homo sapiens, UniProt P35968); experiment: panel enzyme assay of 257 kinases; assay type: biochemical; settings: read-out: % Inhibition by Compound (1) at 1000 nmol/L
# Protocol: as §1
# TEC = TEC (Homo sapiens, UniProt P42680); experiment: panel enzyme assay of 257 kinases; assay type: biochemical; settings: read-out: % Inhibition by Compound (1) at 1000 nmol/L
# Protocol: as §1
# TXK = TXK (Homo sapiens, UniProt P42681); experiment: panel enzyme assay of 257 kinases; assay type: biochemical; settings: read-out: % Inhibition by Compound (1) at 1000 nmol/L
# Protocol: as §1
# 257 kinases = experiment: panel enzyme assay of 257 kinases, whole panel; assay type: biochemical; settings: 1000 nmol/L
# Protocol: as §1
# SK-BR-3 cells = experiment: feedback activation of HER3, downstream targets and apoptosis markers in SK-BR-3 cells; assay type: cell-based, human; settings: 48 hours
# Source text: The effect of Compound (1) on feedback activation of HER3, its downstream targets (ERK and AKT), and apoptosis markers (BIM and cleaved PARP) in SK-BR-3 cells was investigated. In addition, the same information for lapatinib and tucatinib (a reversible inhibitor of HER2) was obtained.
# [1] = test system: MCF10A_HER2/insYVMA cells; experiment: growth inhibitory effect in human cancer cell lines (GI50); assay type: cell-based; settings: engineered to express HER2 A775_G776insYVMA
# human BCRP [2] = target: T1, human BCRP (Homo sapiens, UniProt Q9UNQ0); settings: not told
# T1 sequence (Q9UNQ0 1-655): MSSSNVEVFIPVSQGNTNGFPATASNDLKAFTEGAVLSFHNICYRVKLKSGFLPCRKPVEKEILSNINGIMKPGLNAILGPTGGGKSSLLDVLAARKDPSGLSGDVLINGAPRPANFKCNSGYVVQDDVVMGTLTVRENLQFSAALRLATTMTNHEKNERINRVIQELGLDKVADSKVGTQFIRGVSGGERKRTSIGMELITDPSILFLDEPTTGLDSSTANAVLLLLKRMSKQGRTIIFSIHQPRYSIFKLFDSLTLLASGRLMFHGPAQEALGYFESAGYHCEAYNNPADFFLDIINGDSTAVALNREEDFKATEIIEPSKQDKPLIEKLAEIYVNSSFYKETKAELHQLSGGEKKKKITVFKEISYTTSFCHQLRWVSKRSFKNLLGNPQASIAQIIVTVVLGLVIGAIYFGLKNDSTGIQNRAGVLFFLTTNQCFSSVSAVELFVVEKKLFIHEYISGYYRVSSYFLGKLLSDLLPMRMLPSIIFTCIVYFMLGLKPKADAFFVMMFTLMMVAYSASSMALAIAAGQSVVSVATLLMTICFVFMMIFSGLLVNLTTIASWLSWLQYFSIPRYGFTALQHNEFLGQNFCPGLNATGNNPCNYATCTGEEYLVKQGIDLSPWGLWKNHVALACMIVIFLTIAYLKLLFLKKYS
# human BCRP [3] = target: T1, human BCRP; experiment: in vitro
# human BCRP [4] = target: T1, human BCRP; experiment: inhibitory effect on human BCRP, bidirectional transport of [^3H]prazosin
# human BCRP [5] = target: T1, human BCRP; experiment: substrate susceptibility on human BCRP, bidirectional transcellular transport, BCRP/MDCK II cells; assay type: in vitro ADME; set-up: expressed in transfected cells; host or cells: MDCK II (canine kidney) cells expressing human BCRP; parent MDCK II as control
# Protocol: Substrate susceptibility of Compound (1) on human BCRP. Time-dependence of the bidirectional transcellular transport of 0.3, 0.5, 1, 3, and 30 μmol/L Compound (1) across human BCRP/Madin-Darby canine kidney II (MDCK II) cells and parent/MDCK II cells was analyzed.
# Chain of BTK (Q06187 whole entry, species assumed): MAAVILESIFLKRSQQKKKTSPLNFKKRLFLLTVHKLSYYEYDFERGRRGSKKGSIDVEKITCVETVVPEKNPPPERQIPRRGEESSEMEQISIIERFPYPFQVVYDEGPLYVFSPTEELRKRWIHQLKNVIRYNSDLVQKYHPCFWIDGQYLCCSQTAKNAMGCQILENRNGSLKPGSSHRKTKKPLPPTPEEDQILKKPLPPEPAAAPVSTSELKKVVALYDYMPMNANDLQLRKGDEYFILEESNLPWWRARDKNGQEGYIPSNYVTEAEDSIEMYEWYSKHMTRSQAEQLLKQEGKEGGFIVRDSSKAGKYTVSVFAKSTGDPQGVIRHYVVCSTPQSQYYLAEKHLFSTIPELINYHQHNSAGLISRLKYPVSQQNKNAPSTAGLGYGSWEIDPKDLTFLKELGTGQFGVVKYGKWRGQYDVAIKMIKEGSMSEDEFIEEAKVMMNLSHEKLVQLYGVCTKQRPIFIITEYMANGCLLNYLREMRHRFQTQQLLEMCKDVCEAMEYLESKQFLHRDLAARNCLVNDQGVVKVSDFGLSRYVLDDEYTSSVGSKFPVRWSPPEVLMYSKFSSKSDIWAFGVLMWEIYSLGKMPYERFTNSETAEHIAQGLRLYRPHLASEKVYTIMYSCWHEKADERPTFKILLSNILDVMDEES
# Chain of BLK (P51451 whole entry, species assumed): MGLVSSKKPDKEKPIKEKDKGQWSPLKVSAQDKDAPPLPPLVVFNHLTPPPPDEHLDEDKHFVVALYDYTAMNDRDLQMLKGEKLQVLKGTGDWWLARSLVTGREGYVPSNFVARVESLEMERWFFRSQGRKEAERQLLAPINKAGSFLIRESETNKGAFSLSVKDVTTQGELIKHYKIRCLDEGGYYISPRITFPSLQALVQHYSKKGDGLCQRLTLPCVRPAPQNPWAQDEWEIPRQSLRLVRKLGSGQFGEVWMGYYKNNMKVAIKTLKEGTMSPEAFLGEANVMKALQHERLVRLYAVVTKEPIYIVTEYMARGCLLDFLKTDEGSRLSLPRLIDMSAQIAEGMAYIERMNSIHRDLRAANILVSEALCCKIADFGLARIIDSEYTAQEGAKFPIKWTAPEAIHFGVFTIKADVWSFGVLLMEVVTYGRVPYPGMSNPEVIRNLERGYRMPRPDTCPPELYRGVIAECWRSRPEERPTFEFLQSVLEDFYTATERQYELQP
# Chain of EPHA6 (Q9UF33 23-1036, species assumed): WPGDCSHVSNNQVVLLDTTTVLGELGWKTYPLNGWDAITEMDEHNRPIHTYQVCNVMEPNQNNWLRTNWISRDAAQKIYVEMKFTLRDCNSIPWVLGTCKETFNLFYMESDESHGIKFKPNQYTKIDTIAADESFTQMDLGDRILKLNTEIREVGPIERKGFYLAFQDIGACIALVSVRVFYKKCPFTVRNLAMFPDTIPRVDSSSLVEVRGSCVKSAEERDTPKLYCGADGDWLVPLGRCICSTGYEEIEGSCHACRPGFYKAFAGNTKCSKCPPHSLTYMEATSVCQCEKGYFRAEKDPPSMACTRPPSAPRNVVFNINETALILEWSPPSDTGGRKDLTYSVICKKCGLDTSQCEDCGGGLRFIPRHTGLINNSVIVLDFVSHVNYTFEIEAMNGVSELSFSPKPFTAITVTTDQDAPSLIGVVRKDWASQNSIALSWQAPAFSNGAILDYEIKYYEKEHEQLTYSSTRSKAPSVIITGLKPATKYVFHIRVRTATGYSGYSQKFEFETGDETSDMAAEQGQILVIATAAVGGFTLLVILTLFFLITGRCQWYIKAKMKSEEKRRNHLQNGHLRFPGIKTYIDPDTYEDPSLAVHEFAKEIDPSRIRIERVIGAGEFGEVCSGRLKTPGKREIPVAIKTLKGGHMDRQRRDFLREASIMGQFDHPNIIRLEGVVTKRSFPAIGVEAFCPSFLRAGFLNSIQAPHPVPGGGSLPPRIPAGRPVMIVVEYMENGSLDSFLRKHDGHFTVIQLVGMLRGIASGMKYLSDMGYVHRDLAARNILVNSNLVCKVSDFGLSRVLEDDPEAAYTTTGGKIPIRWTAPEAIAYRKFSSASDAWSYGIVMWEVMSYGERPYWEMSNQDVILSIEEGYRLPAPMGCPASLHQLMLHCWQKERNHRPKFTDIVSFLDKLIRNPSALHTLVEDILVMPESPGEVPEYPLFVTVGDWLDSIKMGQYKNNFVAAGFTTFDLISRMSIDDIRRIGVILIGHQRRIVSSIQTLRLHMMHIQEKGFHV
# Chain of TEC (P42680 whole entry): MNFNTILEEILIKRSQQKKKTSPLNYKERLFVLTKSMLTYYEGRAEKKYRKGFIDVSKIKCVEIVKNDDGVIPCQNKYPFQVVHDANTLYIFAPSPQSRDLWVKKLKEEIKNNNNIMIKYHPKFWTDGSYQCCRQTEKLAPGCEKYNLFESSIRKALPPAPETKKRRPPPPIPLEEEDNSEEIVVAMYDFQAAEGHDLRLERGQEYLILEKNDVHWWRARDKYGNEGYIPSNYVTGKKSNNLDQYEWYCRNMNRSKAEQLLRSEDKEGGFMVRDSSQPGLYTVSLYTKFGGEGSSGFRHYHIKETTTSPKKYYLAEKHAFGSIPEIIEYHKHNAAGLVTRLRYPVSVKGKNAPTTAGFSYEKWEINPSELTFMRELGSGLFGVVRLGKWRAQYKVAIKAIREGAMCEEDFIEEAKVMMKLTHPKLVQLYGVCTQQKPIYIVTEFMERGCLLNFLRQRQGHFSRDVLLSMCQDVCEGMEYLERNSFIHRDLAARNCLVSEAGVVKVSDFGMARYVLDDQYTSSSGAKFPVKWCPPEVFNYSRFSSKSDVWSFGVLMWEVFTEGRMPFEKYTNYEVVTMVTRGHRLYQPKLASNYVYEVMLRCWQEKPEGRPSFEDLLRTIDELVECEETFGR
# Chain of HER4 (Q15303 26-1308, species assumed): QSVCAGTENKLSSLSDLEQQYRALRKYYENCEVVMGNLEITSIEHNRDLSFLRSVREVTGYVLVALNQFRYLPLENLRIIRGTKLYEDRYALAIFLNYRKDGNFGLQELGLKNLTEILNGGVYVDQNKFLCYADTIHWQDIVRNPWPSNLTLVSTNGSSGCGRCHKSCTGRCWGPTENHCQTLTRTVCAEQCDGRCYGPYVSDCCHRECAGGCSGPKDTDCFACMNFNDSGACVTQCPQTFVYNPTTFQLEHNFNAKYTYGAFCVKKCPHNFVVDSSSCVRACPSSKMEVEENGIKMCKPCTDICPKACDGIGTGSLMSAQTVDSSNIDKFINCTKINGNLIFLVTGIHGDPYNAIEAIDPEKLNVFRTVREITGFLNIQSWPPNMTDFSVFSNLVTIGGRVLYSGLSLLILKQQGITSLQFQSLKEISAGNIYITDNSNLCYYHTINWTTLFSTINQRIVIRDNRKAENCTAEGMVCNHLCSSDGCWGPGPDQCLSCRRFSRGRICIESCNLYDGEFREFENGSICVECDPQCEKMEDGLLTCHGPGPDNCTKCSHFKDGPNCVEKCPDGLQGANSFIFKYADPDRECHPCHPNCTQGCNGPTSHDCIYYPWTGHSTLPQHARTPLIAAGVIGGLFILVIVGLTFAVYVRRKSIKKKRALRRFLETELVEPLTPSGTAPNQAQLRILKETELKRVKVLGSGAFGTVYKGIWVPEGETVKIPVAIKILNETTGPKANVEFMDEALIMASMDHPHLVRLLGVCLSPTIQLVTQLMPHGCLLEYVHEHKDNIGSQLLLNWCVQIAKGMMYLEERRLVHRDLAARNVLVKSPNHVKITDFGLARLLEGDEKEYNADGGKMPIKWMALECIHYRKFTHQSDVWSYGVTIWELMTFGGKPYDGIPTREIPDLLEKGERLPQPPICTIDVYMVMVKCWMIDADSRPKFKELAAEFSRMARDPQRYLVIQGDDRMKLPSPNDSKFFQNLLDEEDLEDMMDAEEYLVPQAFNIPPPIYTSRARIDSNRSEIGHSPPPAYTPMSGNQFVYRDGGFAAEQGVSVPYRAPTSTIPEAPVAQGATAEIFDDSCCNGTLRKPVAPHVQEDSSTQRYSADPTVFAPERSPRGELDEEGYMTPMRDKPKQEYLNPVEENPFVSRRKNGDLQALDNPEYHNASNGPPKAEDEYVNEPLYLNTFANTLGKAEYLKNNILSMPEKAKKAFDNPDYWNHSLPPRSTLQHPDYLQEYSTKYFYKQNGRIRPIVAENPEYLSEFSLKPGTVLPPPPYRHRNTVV
# Chain of DDR1 (Q08345 19-913, species assumed): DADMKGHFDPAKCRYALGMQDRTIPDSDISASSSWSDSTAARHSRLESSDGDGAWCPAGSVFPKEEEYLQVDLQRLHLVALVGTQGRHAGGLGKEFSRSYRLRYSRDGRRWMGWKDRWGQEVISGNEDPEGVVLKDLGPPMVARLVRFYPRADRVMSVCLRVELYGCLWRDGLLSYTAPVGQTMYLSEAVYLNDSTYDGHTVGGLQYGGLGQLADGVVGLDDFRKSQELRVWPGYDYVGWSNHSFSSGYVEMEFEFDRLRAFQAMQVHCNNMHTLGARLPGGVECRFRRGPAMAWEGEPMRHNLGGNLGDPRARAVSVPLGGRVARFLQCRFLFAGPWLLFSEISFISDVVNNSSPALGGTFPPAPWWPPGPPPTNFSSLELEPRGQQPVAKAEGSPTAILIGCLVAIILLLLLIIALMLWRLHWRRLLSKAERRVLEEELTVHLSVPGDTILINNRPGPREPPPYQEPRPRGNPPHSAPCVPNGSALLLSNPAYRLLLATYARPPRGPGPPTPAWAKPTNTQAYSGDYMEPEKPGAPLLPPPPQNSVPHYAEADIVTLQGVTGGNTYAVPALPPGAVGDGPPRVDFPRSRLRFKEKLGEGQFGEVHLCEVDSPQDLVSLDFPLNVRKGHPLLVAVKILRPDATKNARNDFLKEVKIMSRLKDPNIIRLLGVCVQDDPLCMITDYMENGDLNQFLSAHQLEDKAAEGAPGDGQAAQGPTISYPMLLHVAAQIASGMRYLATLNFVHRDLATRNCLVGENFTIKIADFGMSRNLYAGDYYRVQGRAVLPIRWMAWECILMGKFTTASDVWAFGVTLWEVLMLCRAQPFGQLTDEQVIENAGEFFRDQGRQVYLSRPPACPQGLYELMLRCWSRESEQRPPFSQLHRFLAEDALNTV
structure (smiles),measurement,setting,value
"C=CC(=O)N1C[C@H](n2c(C#CC3CC3)c(C(=O)N[C@H](C)c3ccccc3)c3c(N)ncnc32)C[C@@H]1C [Compound (1), 7-((3R,5S)-1-acryloyl-5-methylpyrrolidin-3-yl)-4-amino-6-(cyclopropylethynyl)-N—((R)-1-phenylethyl)-7H-pyrrolo[2,3-d]pyrimidine-5-carboxamide]",inhibition at 1 µM,BLK,64.7%
same,inhibition at 1 µM,BMX,98.9%
same,inhibition at 1 µM,BTK,80%
same,inhibition at 1 µM,DDR1,86%
same,inhibition at 1 µM,EGFR,98.3%
same,inhibition at 1 µM,EPHA6,72.9%
same,inhibition at 1 µM,FLT4,80.4%
same,inhibition at 1 µM,HER2,100%
same,inhibition at 1 µM,HER4,98.4%
same,inhibition at 1 µM,ITK,56.4%
same,inhibition at 1 µM,JAK3,99.2%
same,inhibition at 1 µM,KDR,67.2%
same,inhibition at 1 µM,TEC,81.7%
same,inhibition at 1 µM,TXK,89.4%
same,number of the 257 kinases tested with ≥50% inhibition of activity,257 kinases,14
same,inhibition of activity for the other 243 kinases,257 kinases; weak inhibition or no inhibitory effect,< 50%
same,BIM and cleaved PARP,SK-BR-3 cells; 10 to 100 nmol/L,markedly increased
same,"phosphorylation of HER2, HER3, AKT, and ERK",SK-BR-3 cells; concentrations starting as low as 10 nmol/L,sustained inhibition
same,GI50,[1],0.0233 ± 0.0014 µM
same,net flux ratio of [^3H]prazosin,human BCRP [2]; 0.01 μmol/L,4.6±0.4
same,net flux ratio of [^3H]prazosin,human BCRP [2]; 0.1 μmol/L,4.0±0.3
same,net flux ratio of [^3H]prazosin,human BCRP [2]; 0.5 μmol/L,2.7±0.2
same,net flux ratio of [^3H]prazosin,human BCRP [2]; 1 μmol/L,1.8±0.2
same,net flux ratio of [^3H]prazosin,human BCRP [2]; 5 μmol/L,1.3±0.2
same,net flux ratio of [^3H]prazosin,human BCRP [2]; 10 μmol/L,1.1±0.1
same,"activity at 3 h, 0.01 μmol/L",human BCRP [3],114%
same,"activity at 3 h, 0.1 μmol/L",human BCRP [3],95%
same,"activity at 3 h, 0.5 μmol/L",human BCRP [3],54%
same,"activity at 3 h, 1 μmol/L",human BCRP [3],24%
same,"activity at 3 h, 5 μmol/L",human BCRP [3],10%
same,"activity at 3 h, 10 μmol/L",human BCRP [3],3%
same,IC50,human BCRP [4],0.332 µM
same,concentration at which transport via human BCRP is saturable,human BCRP [5],> 1000 nM
same,net flux ratio,"human BCRP [5]; 0.3 μmol/L Compound (1), 4 hours",1.5±0.6
same,net flux ratio,"human BCRP [5]; 0.5 μmol/L Compound (1) with 10 μmol/L Ko143, 3 hours",1.2±0.2
same,net flux ratio,"human BCRP [5]; 0.5 μmol/L Compound (1) with 10 μmol/L Ko143, 4 hours",1.2±0.2
same,net flux ratio,"human BCRP [5]; 0.5 μmol/L Compound (1), 2 hours",1.9±0.9
same,net flux ratio,"human BCRP [5]; 0.5 μmol/L Compound (1), 3 hours",3.0±0.9
same,net flux ratio,"human BCRP [5]; 0.5 μmol/L Compound (1), 4 hours",2.7±0.8
same,net flux ratio,"human BCRP [5]; 1 μmol/L Compound (1) with 10 μmol/L Ko143, 4 hours",1.4±0.2
same,net flux ratio,"human BCRP [5]; 1 μmol/L Compound (1), 2 hours",2.3±0.7
same,net flux ratio,"human BCRP [5]; 1 μmol/L Compound (1), 3 hours",1.8±0.4
same,net flux ratio,"human BCRP [5]; 1 μmol/L Compound (1), 4 hours",2.2±0.7
same,net flux ratio,"human BCRP [5]; 3 μmol/L Compound (1), 2 hours",2.0±0.3
same,net flux ratio,"human BCRP [5]; 3 μmol/L Compound (1), 3 hours",1.6±0.3
same,net flux ratio,"human BCRP [5]; 3 μmol/L Compound (1), 4 hours",1.5±0.2
same,net flux ratio,"human BCRP [5]; 30 μmol/L Compound (1), 2 hours",1.4±0.3
same,net flux ratio,"human BCRP [5]; 30 μmol/L Compound (1), 3 hours",1.1±0.1
same,net flux ratio,"human BCRP [5]; 30 μmol/L Compound (1), 4 hours",1.2±0.1
same,substrate susceptibility on human BCRP,human BCRP [5]; criterion net flux ratio exceeding 2,substrate of BCRP

# Source: US20240238300A1, “TREATMENT METHODS FOR SUBJECTS WITH CANCER HAVING AN ABERRATION IN EGFR AND/OR HER2” (TAIHO PHARMACEUTICAL CO., LTD., priority 2021, published 2024)
